Results as given in patent publication US10669242B2 (priority 2016, dated 2020).

Key:
[1] = system: C. difficile infection (CDI); conditions: patients; Louie et al. 2011; cited from earlier work
[2] = system: C. difficile; type: in vivo, C57/BL6 mice
[3] = system: C. difficile strain 630; type: in vivo, Golden Syrian hamsters; conditions: PO twice per day; Example 5ae 50 mg/kg 7 days; vancomycin 5 mg/kg 5 days
[4] = biological target: T1, C. difficile full-length toxin TcdA (Clostridioides difficile, UniProt P16154); test: cell-based
T1 construct: C. difficile full-length toxins (TcdA or TcdB); purchased Enzo Life Sciences BML-G140-0050

[5] = system: C. difficile toxin (TcdA and TcdB, ~1:1); test: Murine C. difficile toxin model (intrarectal toxin); type: in vivo, C57BL/6 mice; conditions: for IL-1β (% Inhibition) / MPO (% Inhibition): murine C. difficile toxin model, PO, 50 mg/kg body weight; for IL-1β in colon tissue / MPO in colon tissue / toxin effect on colon length: oral (PO), 50 mg/kg, intrarectal toxin 12.5 μg
Protocol: In the following studies, we established a murine C. difficile toxin model with modifications from a published murine model (Hirota, Iablokov et al. 2012). Details of the murine C. difficile toxin model are described in the “Experimental Protocols” (below). C. difficile toxins were isolated from a culture of the C. difficile strain VPI 10463. C. difficile toxins consisted of TcdA and TcdB (˜1:1 ratio of TcdA:TcdB). Respective TcdA and TcdB concentrations were determined by enzyme-linked immunosorbant assay (ELISA). In our mouse model, C. difficile toxins were administered intrarectally to evaluate their pathological effects.
We administered C. difficile toxin (12.5 μg/mouse) via intrarectal instillation into female C57BL/6 mice. Four (4) animals were used in each group. Four (4) hours after the toxin administration, the mice were euthanized. The colons were excised from the animals and washed with phosphate buffered saline (PBS). The colon lengths were measured. Excised colon tissues were stored at −70° C. for chemical analysis of interleukin-1β(IL-1β) and myeloperosidase (MPO) in tissues, which are the hallmarks of colon inflammation. Excised colon tissues were also stored at room temperature in 10% neutral buffered formalin for histopathological analysis.
Using the murine C. difficile toxin model (Example 61), we evaluated the efficacy of Example 6a in reducing the C. difficile toxin activity. In this study, the isolated toxin (12.5 μg) was diluted in 50 μl of PBS and mixed with a 50 μl suspension of Example 6a (10 mg/mL) in 1% carboxymethyl cellulose and 0.5% Tween 80 to achieve a fixed dose of […] of Example 6a (0.5 mg in mice weighing ˜20 g) and C. difficile toxin (12.5 μg). Three (3) animals were used in each group.
In this study, we evaluated the efficacy of Example 6a via different routes of administration (i.e., oral (PO) and intraperitoneal (IP) administrations) in the same murine C. difficile toxin model (Example 61). In both PO and IP dosages, Example 6a was prepared as 5 mg/mL solutions in 20% PEG-400, 0.4% carboxymethyl cellulose and 0.2% Tween 80. Example 6a was administered at a final dose of 50 mg/kg body weight. Three (3) mice were used in each group (i.e., vehicle (control), PO and IP).
Using the murine C. difficile toxin model (Example 63), we further tested the efficacy of four (4) additional compounds (i.e., Example 6a, Example 5ae, Example 4cl, and Example 5al) via PO administration. All of the compounds were dosed orally at 50 mg/kg body weight. In three separate studies a total of three (3) to fourteen (14) mice were used in each group.
We evaluated the efficacy of additional compounds in reducing C. difficile toxicity. Using the PO administration (Example 63), we further tested 30 compounds (Table 34). All of the compounds were dosed orally at 50 mg/kg body weight. Three (3) to fourteen (14) animals were used for each compound. % inhibition was determined by the following formula: […]
An overnight culture of C. difficile strain VPI 10463 (American Type Culture Collection) was grown at 37° C. in Brain-Heart Infusion (BHI) broth using the GasPak EZ Anaerobe Pouch System (Becton Dickinson). 2 mL of the culture was added to 28 mL of phosphate buffered saline (PBS) in a gamma-irradiated, 10,000 molecular weight cut-off, 30-70 ml Slide-A-Lyzer G2 dialysis cassette (Pierce). This cassette was submerged in 1 L of BHI broth in a 2 L beaker and incubated under anaerobic conditions for 5 days at 37° C. The culture was then transferred to a 50 mL conical tube and the cassette was washed with 10 mL of PBS. The combined culture and wash were centrifuged at 2,000 g for 20 minutes to pellet the bacteria and the supernatant was filtered through a 0.2 μm syringe filter. The filtrate was then applied to a 20 mL 150 K molecular weight cut-off concentration column (Pierce) and centrifuged at 2,000 g for 15 minutes. Concentrated supernatant was stored at 4° C. […]

[6] = biological target: T2, recombinant glucosyltransferase domain of C. difficile Toxin B/TcdB (Clostridioides difficile, UniProt P18177); test: biochemical
T2 construct: 6-His (C); purchased R&D Systems 6246-GT

[7] = system: C. difficile strain VPI 10463; test: Acute murine C. difficile infection model; type: in vivo, C57BL/6 mice; conditions: PO; 52 hours after infection
From the text: In a hospital environment, C. difficile infection occurs when the patient receives an antibiotic treatment that disrupts the normal gut microflora and is exposed to C. difficile spores. The patient often fails to mount a protective immune response against the acute C. difficile infection. (Rupnik, Wilcox et al. 2009). To study the acute C. difficile infection, we established a murine C. difficile infection model. Details of the infection model are provided in the “Experimental Protocol” (below).
In brief, female C57BL/6 mice were administered the following antibiotics: colistin (0.042 units/mL), gentamicin (0.035 mg/mL), kanamycin (0.4 mg/mL), metronidazole (0.215 mg/mL) and vancomycin (0.045 mg/mL) in drinking water for 3 days. The administered antibiotics disrupted the normal gut microflora in mice. On the 4th day, mice received oral administration of 0.5 mL volume containing ˜100 spores produced from a virulent clinical C. difficile isolate (strain VPI 10463). In this acute murine C. difficile infection model, we observed a similar time course of infection when compared to that of clinical patients.
Using the developed murine C. difficile infection model (Example 67), we evaluated our test compounds for their efficacy in reducing weight loss and gut inflammation caused by the acute C. difficile infection. We tested the efficacy of Example 6a and Example 5ae and used eight (8) animals in each group.
We further tested the efficacy of the Example 6a, Example 5ae, Example 4cl, and Example 5al compounds by PO administration. Vancomycin was used as a positive control. Three (3) experiments were performed utilizing a total of five (5) to sixteen (16) animals in each group.
C. difficile strain VPI 10463 was grown for four (4) days in 10 ml of BHI in a Bactron anaerobic workstation (Shel Lab). The culture was centrifuged at 2,700 g for 10 minutes. The bacterial pellet was washed with 10 mL of PBS and the centrifugation was repeated. The pellet was then re-suspended in 10 mL of PBS, incubated at 56° C. for 10 minutes, and then was frozen at −20° C. until used. Titers of spore stocks were determined by serial dilution and plating onto BHI and with 1% taurocholate and counting of colonies after incubation for 24 hours at 37° C. using the GasPak EZ Anaerobe Pouch System.
We utilized an established C. difficile murine infection model (Chen, Katchar et al. 2008). To render them susceptible to infection, female C57BL/6 mice (˜10 weeks old and weighing ˜20 g) were administered the following antibiotics (Sigma Aldrich) in drinking water for 3 days (Days −6 to −3): colistin (0.042 units/mL), gentamicin (0.035 mg/mL), kanamycin (0.4 mg/mL), metronidazole (0.215 mg/mL) and vancomycin (0.045 mg/mL). Based upon an expected water consumption of 100 mL/kg/day, the approximate doses of these antibiotics will be as follows: colistin (4.2 units/kg/day), gentamicin (3.5 mg/kg/day), kanamycin (40 mg/kg/day), metronidazole (21.5 mg/kg/day) and vancomycin (4.5 mg/kg/day). The animals were provided with regular drinking water for two days (Day −2 and Day −1), and the next day (Day 0) they were administered clindamycin phosphate (1 mg/mL solution in PBS) at 10 mL/kg by intraperitoneal injection, for a final dose of 10 mg/kg body weight. The following day (Day 1), they were orally gavaged with ˜100 spores in a 0.5 ml volume.
Compounds were administered beginning ˜8 hours after infection, and the animals were dosed twice per day for two days (Days 2-3) with a total of four doses. Compounds were prepared as 5 mg/mL suspensions in 20% PEG-400, 0.4% carboxymethyl cellulose and 0.2% Tween 80 and administered at a dose of 10 mL/kg, for a final dose of 50 mg/kg body weight.
Animals were observed and weighed two (2) to (3) times daily. Animals that were obviously moribund or had lost >20% of their initial body weight were euthanized. Sub-groups of animals were euthanized four (4) hours after the final compound dose (52 hours after infection). […]

[8] = biological target: T3, C. difficile full-length toxin TcdB (Clostridioides difficile, UniProt P18177); test: cell-based
T3 construct: C. difficile full-length toxins (TcdA or TcdB); purchased EMD Millipore 616377

T1 sequence (P16154 whole entry, looked up): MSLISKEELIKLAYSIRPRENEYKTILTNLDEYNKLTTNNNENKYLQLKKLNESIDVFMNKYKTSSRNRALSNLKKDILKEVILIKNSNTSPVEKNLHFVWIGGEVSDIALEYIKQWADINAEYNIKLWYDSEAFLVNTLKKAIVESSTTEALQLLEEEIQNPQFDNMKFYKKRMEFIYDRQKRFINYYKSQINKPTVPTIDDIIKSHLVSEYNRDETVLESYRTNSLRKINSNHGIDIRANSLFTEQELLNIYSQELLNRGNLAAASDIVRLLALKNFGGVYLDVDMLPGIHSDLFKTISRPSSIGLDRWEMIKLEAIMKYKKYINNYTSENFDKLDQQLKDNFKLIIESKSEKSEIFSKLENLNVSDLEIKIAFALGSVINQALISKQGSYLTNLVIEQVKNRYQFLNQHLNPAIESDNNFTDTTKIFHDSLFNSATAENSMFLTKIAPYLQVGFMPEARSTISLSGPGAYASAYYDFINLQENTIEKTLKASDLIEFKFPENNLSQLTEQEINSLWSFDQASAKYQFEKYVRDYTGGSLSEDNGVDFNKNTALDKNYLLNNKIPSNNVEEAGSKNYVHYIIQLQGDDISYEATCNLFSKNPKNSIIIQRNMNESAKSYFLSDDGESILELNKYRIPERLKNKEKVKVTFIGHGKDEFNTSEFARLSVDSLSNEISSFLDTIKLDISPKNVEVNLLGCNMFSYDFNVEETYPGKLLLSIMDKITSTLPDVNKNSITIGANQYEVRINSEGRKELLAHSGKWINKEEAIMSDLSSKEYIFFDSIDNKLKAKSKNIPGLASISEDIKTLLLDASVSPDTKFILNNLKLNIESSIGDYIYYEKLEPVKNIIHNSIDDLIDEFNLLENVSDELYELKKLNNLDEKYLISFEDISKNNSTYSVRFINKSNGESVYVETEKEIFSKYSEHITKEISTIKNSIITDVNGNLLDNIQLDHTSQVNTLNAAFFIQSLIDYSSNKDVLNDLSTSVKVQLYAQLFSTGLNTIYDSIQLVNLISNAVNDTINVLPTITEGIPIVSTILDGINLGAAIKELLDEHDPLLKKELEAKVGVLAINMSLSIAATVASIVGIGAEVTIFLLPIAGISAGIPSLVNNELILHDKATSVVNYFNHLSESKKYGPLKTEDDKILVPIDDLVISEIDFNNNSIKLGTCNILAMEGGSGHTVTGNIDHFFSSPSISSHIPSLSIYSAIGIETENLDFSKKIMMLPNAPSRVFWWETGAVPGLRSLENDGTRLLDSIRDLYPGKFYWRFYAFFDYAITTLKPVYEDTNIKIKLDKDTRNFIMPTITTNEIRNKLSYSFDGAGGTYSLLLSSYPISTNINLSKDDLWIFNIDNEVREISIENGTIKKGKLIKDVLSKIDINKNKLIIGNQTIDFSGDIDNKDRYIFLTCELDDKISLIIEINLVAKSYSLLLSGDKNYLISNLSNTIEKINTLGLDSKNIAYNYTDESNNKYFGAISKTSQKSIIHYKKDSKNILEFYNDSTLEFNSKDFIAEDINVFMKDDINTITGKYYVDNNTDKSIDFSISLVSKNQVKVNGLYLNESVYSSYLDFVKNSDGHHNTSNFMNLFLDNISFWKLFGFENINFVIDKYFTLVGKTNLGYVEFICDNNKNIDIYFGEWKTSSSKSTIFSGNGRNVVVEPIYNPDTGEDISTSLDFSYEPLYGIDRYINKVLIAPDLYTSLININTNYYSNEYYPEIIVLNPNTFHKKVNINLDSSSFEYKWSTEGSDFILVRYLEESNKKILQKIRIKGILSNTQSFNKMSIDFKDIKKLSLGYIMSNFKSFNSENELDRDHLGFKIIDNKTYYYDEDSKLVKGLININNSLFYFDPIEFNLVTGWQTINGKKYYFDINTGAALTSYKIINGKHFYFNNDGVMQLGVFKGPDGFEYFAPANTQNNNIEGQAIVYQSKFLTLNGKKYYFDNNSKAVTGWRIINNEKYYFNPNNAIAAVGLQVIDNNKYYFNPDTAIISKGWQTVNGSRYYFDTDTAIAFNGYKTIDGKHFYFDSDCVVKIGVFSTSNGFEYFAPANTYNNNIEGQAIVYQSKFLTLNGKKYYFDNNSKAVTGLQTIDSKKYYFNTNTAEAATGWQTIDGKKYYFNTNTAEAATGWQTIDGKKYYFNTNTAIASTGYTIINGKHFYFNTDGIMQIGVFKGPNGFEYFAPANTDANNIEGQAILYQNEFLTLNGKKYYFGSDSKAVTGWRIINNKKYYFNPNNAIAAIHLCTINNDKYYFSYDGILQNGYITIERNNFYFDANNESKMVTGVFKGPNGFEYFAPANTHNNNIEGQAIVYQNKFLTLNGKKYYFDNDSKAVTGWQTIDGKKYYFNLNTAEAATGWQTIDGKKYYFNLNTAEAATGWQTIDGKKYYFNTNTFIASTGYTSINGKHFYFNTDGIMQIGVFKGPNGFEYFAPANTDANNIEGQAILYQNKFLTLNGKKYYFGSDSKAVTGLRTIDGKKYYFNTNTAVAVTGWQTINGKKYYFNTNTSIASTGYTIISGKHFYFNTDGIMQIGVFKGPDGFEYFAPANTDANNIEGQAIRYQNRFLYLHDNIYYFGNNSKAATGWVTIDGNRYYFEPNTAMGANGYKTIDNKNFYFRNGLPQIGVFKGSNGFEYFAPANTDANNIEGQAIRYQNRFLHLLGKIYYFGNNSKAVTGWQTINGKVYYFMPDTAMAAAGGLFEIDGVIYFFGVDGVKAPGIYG
T2 sequence (P18177 1-543): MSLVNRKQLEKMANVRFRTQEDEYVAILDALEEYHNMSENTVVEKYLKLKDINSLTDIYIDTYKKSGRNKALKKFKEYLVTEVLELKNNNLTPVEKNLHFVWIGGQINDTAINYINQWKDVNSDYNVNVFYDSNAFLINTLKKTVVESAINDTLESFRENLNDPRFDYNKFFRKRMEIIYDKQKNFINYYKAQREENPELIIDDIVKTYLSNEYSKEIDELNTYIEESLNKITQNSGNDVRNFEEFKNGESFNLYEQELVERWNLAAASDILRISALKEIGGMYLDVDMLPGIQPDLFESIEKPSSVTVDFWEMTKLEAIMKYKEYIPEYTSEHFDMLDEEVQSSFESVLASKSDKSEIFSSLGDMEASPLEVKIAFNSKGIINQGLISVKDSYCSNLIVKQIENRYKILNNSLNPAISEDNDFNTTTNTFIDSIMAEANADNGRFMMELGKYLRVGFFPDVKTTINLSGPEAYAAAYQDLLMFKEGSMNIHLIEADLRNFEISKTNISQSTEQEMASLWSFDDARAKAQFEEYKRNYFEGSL

SMILES	CDI recurrence [1]	weight loss, days 8-9 after infection ([2]; relapse model, PO, vancomycin 20 mg/kg once per day for five days)	weight loss during treatment (Days 1-5) ([2]; vancomycin 20 mg/kg oral, once per day for five days)	body weight loss [3]	IC50 [4]	IL-1β (% Inhibition) [5]	MPO (% Inhibition) [5]	IL-1β in colon tissue [5]	MPO in colon tissue [5]	toxin effect on colon length [5]	IC50 [6]	IL-1β in colon tissues [7]	MPO in colon tissues [7]	toxin effect on colon length [7]	IC50 [8]
CN[C@H](CC(C)C)C(=O)N[C@H]1C(=O)N[C@@H](CC(N)=O)C(=O)N[C@H]2C(=O)N[C@H]3C(=O)N[C@H](C(=O)N[C@H](C(=O)O)c4cc(O)cc(O)c4-c4cc3ccc4O)[C@H](O)c3ccc(c(Cl)c3)Oc3cc2cc(c3O[C@@H]2O[C@H](CO)[C@@H](O)[C@H](O)[C@H]2O[C@H]2C[C@](C)(N)[C@H](O)[C@H](C)O2)Oc2ccc(cc2Cl)[C@H]1O [vancomycin, reference compound]	25%	significant weight loss	prevented weight loss	prevented any significant weight loss											
CCc1c(Cl)c(O)c(Cl)c(O)c1C(=O)O[C@H]1[C@H](O)[C@H](OC)[C@H](OC/C2=C\C=C\C[C@H](O)/C(C)=C/[C@H](CC)[C@@H](O[C@@H]3OC(C)(C)[C@@H](OC(=O)C(C)C)[C@H](O)[C@@H]3O)/C(C)=C/C(C)=C/C[C@@H]([C@@H](C)O)OC2=O)O[C@@H]1C [fidaxomicin]	8%														
Cc1cc(CN2C(=O)c3ccc(Cl)cc3NC(=O)[C@H]2Cc2ccccn2)ccc1C(=O)Nc1ccc(C(F)(F)F)cn1 [Example 5al, (R)-4-((8-Chloro-2,5-dioxo-3-(pyridin-2-ylmethyl)-2,3-dihydro-1H-benzo[e][1,4]diazepin-4(5H)-yl)methyl)-2-methyl-N-(5-(trifluoromethyl)pyridin-2-yl)benzamide]					1000 to 10000 nM	81%	91%	reduced the levels of IL-1β	reduced	reduced the C. difficile toxin-mediated effects on colon length	< 100 nM	reduced the level of IL-1β	reduced	significantly reduced the toxin effect on colon length	< 100 nM
COc1ccc(NC(=O)c2ccc(CN3C(=O)c4ccc(Cl)cc4NC(=O)[C@H]3Cc3ccccn3)cc2C)nc1 [Example 4cl, (R)-4-((8-Chloro-2,5-dioxo-3-(pyridin-2-ylmethyl)-2,3-dihydro-1H-benzo[e][1,4]diazepin-4(5H)-yl)methyl)-N-(5-methoxypyridin-2-yl)-2-methylbenzamide]					100 to 999 nM	100%	100%	reduced the levels of IL-1β	reduced	reduced the C. difficile toxin-mediated effects on colon length	< 100 nM			significantly reduced the toxin effect on colon length	< 100 nM
COc1cc(CN2C(=O)c3ccc(Cl)cc3NC(=O)[C@H]2Cc2ccccn2)ccc1C(=O)Nc1ccc(C(F)(F)F)cn1 [Example 4au, (R)-4-((8-Chloro-2,5-dioxo-3-(pyridin-2-ylmethyl)-2,3-dihydro-1H-benzo[e][1,4]diazepin-4(5H)-yl)methyl)-2-methoxy-N-(5-(trifluoromethyl)pyridin-2-yl)benzamide]					> 10000 nM	40%	0%				< 100 nM				100 to 999 nM
